{
  "source": "patent US20200284781A1",
  "about": "“TEST METHOD OF COMBINED TOXICITY FOR CH[…] BUTACHLOR” (priority 2019, published 2020)",
  "key": {"[1]": {"test": "Single toxicity of chlorpyrifos and butachlor to zebrafish embryos", "type": "in vivo", "conditions": "in vivo, other: immersion in test solution (waterborne exposure), read-out: LC50 (95% CI)", "procedure": "(§1) D. Toxicity of pesticides to zebrafish embryos: On the basis of clearing the effective concentration range of pesticides in pre-tests, diluting the pesticide stock solution with standard dilution water to 5-7 concentrations with a geometrical ratio, and using a 24 well cell culture dish for exposure apparatus, the volume of each well is 3 mL, 20 wells are the same experimental concentration, and the remaining 4 wells are blank controls; during the experiment, of test solution and 1 randomly selected 3 hpf (hourpost-fertilization) normal fertilized embryo at the embryo shield stage were put into every well, set up 3 replicates at each concentration, every culture dish as a replicate, and incubating in a multifunctional incubator at 26±1° C. with a photoperiod of 14 h (light): 10 h (dark);\n(§2) Preferably, in the step D, the test solution needs to be replaced every 24 h, observing and microscopical observing the CK group and the exposed group every 24 h, recording the number of embryos with normal development and malformations, and calculating the number of embryos hatched and larvae malformations, the experiment lasts 96 hours.\nas §1, with “24-well” for “24 well”, “poisoning” for “exposure”, “experiment, 2 mL” for “experiment,”, “C. V:” for “C.”\n(§3) H. Data processing: Calculating the LC50 value of pesticides on larvae and their 95% confidence limits by probit analysis based on the number and time of dead fish larvae, and using 95% confidence limit of LC50 as the criterion to determine whether the toxicity difference of different drugs is significant, LC50≤0.1 mg a.i. L^−1, is hypertoxic; 0.1<LC50≤1.0 mg a.i. L^−1, is high toxicity; 1.0<LC50≤10.0 mg a.i. L^−1, is medium toxicity; LC50>10.0 mg a.i. L^−1, is low toxicity, the maximum allowable concentration of MPC employs 100 as the protection factor, the formula is: MPC=96 h-LC50/100, to get the maximum allowable concentration of a poison.\n(§4) Wherein in the step D, the test solution needs to be replaced every 24 h, observing and microscopical observing the CK group and the exposed group every 24 h, recording the number of embryos with normal development and malformations, and calculating the number of embryos hatched and larvae malformations, the experiment lasts 96 hours, for structural analysis."}, "zebrafish embryos": {"test_system": "zebrafish embryos", "test": "Single toxicity of chlorpyrifos and butachlor to zebrafish embryos", "type": "in vivo", "procedure": "as §1, §2\nas §1, with “24-well” for “24 well”, “poisoning” for “exposure”, “experiment, 2 mL” for “experiment,”, “C. V:” for “C.”\nas §3, §4"}, "[2]": {"test": "Single toxicity of chlorpyrifos and butachlor to zebrafish larvae", "conditions": "in vivo, other: immersion in test solution (waterborne exposure), read-out: LC50 (95% CI)", "procedure": "(§5) H. Data processing: Calculating the LC50 value of pesticides on larvae and their 95% confidence limits by probit analysis based on the number and time of dead fish larvae, and using 95% confidence limit of LC50 as the criterion to determine whether the toxicity difference of different pesticides is significant, LC50≤0.1 mg a.i. L^−1, is hypertoxic; 0.1<LC50≤1.0 mg a.i. L^−1, is high toxicity; 1.0<LC50≤[…] a.i. L^−1, is medium toxicity; LC50>10.0 mg a.i. L^−1 is low toxicity. The maximum allowable concentration of MPC employs 100 as the protection factor, the formula is: MPC=96 h-LC50/100, to get the maximum allowable concentration of a poison.\nas §3\n(§6) Wherein the larvae in the migratory period in step E refer to fish 120 h after fertilization of eggs, for improving the accuracy of the test."}, "[3]": {"test": "Single toxicity of chlorpyrifos and butachlor to Japanese medaka larvae", "conditions": "in vivo, other: immersion in test solution (waterborne exposure), read-out: LC50 (95% CI)", "procedure": "as §5, §3, §6"}, "[4]": {"test": "Combined toxicity of chlorpyrifos and butachlor to zebrafish larvae", "conditions": "in vivo, read-out: LC50 (95% CI) of the component in the mixture", "procedure": "(§7) F. Combined toxicity test: The toxicity test is performed on zebrafish larvae and Japanese medaka larvae, the test procedure is as follows:\na. Zebrafish larvae: The LC50 value of zebrafish larvae with a single pesticide for 96 h is a toxic unit, and 5-7 different concentrations with a geometrical ratio, test method and calculation of LC50 value of each exposure time are the same as 1.4.2;\nas §3"}, "[5]": {"test": "Combined toxicity of chlorpyrifos and butachlor to Japanese medaka larvae", "conditions": "in vivo", "procedure": "as §7\nb. Japanese medaka: A single pesticide is used to measure the LC50 value of Japanese medaka for 96 hours, mixing chlorpyrifos and butachlor to form binary mixed systems with different ratios of 1:4, 2:3, 1:1, 3:2 and 4:1, according to the pre-experiment results, 5-7 different concentrations are set at equal logarithmic intervals to determine the combined toxicity of the mixed system to Japanese medaka, the method is the same as the determination of single toxicity, the total concentration of the binary mixture is the sum of the concentrations of the two components;\nb. Japanese medaka: A single pesticide is used to measure the LC50 value of Japanese medaka for 96 hours, mixing chlorpyrifos and butachlor to form binary mixed systems with different ratios of 1:4, 2:3, 1:1, 3:2 and 4:1, according to the pre-experiment results, 5-7 different concentrations with a geometrical ratio are set at equal logarithmic intervals to determine the combined toxicity of the mixed system to Japanese medaka the method is the same as the determination, of single toxicity, the total concentration of the binary mixture is the sum of the concentrations of the two components;\nas §3"}},
  "data": [
    {"smiles": "CCCCOCN(C(=O)CCl)c1c(CC)cccc1CC", "note": "[Butachlor, butachlor]", "values": [
      {"measurement": "LC50 at 24 h", "setting": "[1]; exposure time 24 h", "result": 32.8, "unit": "µg/mL"},
      {"measurement": "LC50 at 48 h", "setting": "[1]; exposure time 48 h", "result": 5.82, "unit": "µg/mL"},
      {"measurement": "LC50 at 72 h", "setting": "[1]; exposure time 72 h", "result": 4.42, "unit": "µg/mL"},
      {"measurement": "LC50 at 96 h", "setting": "[1]; exposure time 96 h", "result": 1.93, "unit": "µg/mL"},
      {"measurement": "effects of exposure on zebrafish embryo development", "setting": "zebrafish embryos", "result": "egg coagulation, pericardial edema, yolk sac edema, and spinal curvature"},
      {"measurement": "times more toxic to zebrafish embryos than chlorpyrifos", "setting": "zebrafish embryos; 96 h", "result": 6.75, "unit": "times"},
      {"measurement": "LC50 at 24 h", "setting": "[2]; exposure time 24 h", "result": 0.67, "unit": "µg/mL"},
      {"measurement": "LC50 at 48 h", "setting": "[2]; exposure time 48 h", "result": 0.59, "unit": "µg/mL"},
      {"measurement": "LC50 at 72 h", "setting": "[2]; exposure time 72 h", "result": 0.51, "unit": "µg/mL"},
      {"measurement": "LC50 at 96 h", "setting": "[2]; exposure time 96 h", "result": 0.44, "unit": "µg/mL"},
      {"measurement": "LC50 at 24 h", "setting": "[3]; exposure time 24 h", "result": 0.85, "unit": "µg/mL"},
      {"measurement": "LC50 at 48 h", "setting": "[3]; exposure time 48 h", "result": 0.72, "unit": "µg/mL"},
      {"measurement": "LC50 at 72 h", "setting": "[3]; exposure time 72 h", "result": 0.54, "unit": "µg/mL"},
      {"measurement": "LC50 at 96 h", "setting": "[3]; exposure time 96 h", "result": 0.43, "unit": "µg/mL"},
      {"measurement": "LC50 at 24 h", "setting": "[4]; equitoxic ratio", "result": 0.91, "unit": "µg/mL"},
      {"measurement": "LC50 at 48 h", "setting": "[4]; equitoxic ratio", "result": 0.72, "unit": "µg/mL"},
      {"measurement": "LC50 at 72 h", "setting": "[4]; equitoxic ratio", "result": 0.45, "unit": "µg/mL"},
      {"measurement": "LC50 at 96 h", "setting": "[4]; equitoxic ratio", "result": 0.26, "unit": "µg/mL"},
      {"measurement": "LC50 at 24 h", "setting": "[4]; equivalent concentration (1:1)", "result": 0.18, "unit": "µg/mL"},
      {"measurement": "LC50 at 48 h", "setting": "[4]; equivalent concentration (1:1)", "result": 0.16, "unit": "µg/mL"},
      {"measurement": "LC50 at 72 h", "setting": "[4]; equivalent concentration (1:1)", "result": 0.14, "unit": "µg/mL"},
      {"measurement": "LC50 at 96 h", "setting": "[4]; equivalent concentration (1:1)", "result": 0.11, "unit": "µg/mL"},
      {"measurement": "LC50 at 24 h", "setting": "[5]; Japanese medaka larvae, chlorpyrifos:butachlor ratio 4:1, 24 h, read-out: LC50 (95% CI) of the component in the mixture", "result": 0.2, "unit": "µg/mL"},
      {"measurement": "LC50 at 96 h", "setting": "[5]; Japanese medaka larvae, chlorpyrifos:butachlor ratio 4:1, 96 h, read-out: LC50 (95% CI) of the component in the mixture", "result": 0.036, "unit": "µg/mL"},
      {"measurement": "LC50 at 24 h", "setting": "[5]; other: immersion in test solution (waterborne exposure), Japanese medaka larvae, chlorpyrifos:butachlor ratio 1:1, 24 h, read-out: LC50 (95%) CI of the component in the mixture", "result": 1.53, "unit": "µg/mL"},
      {"measurement": "LC50 at 48 h", "setting": "[5]; other: immersion in test solution (waterborne exposure), Japanese medaka larvae, chlorpyrifos:butachlor ratio 1:1, 48 h, read-out: LC50 (95%) CI of the component in the mixture", "result": 1.22, "unit": "µg/mL"},
      {"measurement": "LC50 at 72 h", "setting": "[5]; other: immersion in test solution (waterborne exposure), Japanese medaka larvae, chlorpyrifos:butachlor ratio 1:1, 72 h, read-out: LC50 (95%) CI of the component in the mixture", "result": 0.93, "unit": "µg/mL"},
      {"measurement": "LC50 at 96 h", "setting": "[5]; other: immersion in test solution (waterborne exposure), Japanese medaka larvae, chlorpyrifos:butachlor ratio 1:1, 96 h, read-out: LC50 (95%) CI of the component in the mixture", "result": 0.81, "unit": "µg/mL"},
      {"measurement": "LC50 at 48 h", "setting": "[5]; other: immersion in test solution (waterborne exposure), Japanese medaka larvae, chlorpyrifos:butachlor ratio 4:1, 48 h, read-out: LC50 (95% CI) of the component in the mixture", "result": 0.15, "unit": "µg/mL"},
      {"measurement": "LC50 at 72 h", "setting": "[5]; other: immersion in test solution (waterborne exposure), Japanese medaka larvae, chlorpyrifos:butachlor ratio 4:1, 72 h, read-out: LC50 (95% CI) of the component in the mixture", "result": 0.11, "unit": "µg/mL"},
      {"measurement": "LC50 at 24 h", "setting": "[5]; other: immersion in test solution (waterborne exposure), chlorpyrifos:butachlor ratio 1:4, 24 h, read-out: LC50 (95% CI) of the component in the mixture", "result": 2.29, "unit": "µg/mL"},
      {"measurement": "LC50 at 48 h", "setting": "[5]; other: immersion in test solution (waterborne exposure), chlorpyrifos:butachlor ratio 1:4, 48 h, read-out: LC50 (95% CI) of the component in the mixture", "result": 1.3, "unit": "µg/mL"},
      {"measurement": "LC50 at 72 h", "setting": "[5]; other: immersion in test solution (waterborne exposure), chlorpyrifos:butachlor ratio 1:4, 72 h, read-out: LC50 (95% CI) of the component in the mixture", "result": 1.14, "unit": "µg/mL"},
      {"measurement": "LC50 at 96 h", "setting": "[5]; other: immersion in test solution (waterborne exposure), chlorpyrifos:butachlor ratio 1:4, 96 h, read-out: LC50 (95% CI) of the component in the mixture", "result": 0.88, "unit": "µg/mL"},
      {"measurement": "LC50 at 24 h", "setting": "[5]; other: immersion in test solution (waterborne exposure), chlorpyrifos:butachlor ratio 2:3, 24 h, read-out: LC50 (95% CI) of the component in the mixture", "result": 2.29, "unit": "µg/mL"},
      {"measurement": "LC50 at 48 h", "setting": "[5]; other: immersion in test solution (waterborne exposure), chlorpyrifos:butachlor ratio 2:3, 48 h, read-out: LC50 (95% CI) of the component in the mixture", "result": 0.66, "unit": "µg/mL"},
      {"measurement": "LC50 at 72 h", "setting": "[5]; other: immersion in test solution (waterborne exposure), chlorpyrifos:butachlor ratio 2:3, 72 h, read-out: LC50 (95% CI) of the component in the mixture", "result": 0.43, "unit": "µg/mL"},
      {"measurement": "LC50 at 96 h", "setting": "[5]; other: immersion in test solution (waterborne exposure), chlorpyrifos:butachlor ratio 2:3, 96 h, read-out: LC50 (95% CI) of the component in the mixture", "result": 0.35, "unit": "µg/mL"},
      {"measurement": "LC50 at 24 h", "setting": "[5]; other: immersion in test solution (waterborne exposure), chlorpyrifos:butachlor ratio 3:2, 24 h, read-out: LC50 (95% CI) of the component in the mixture", "result": 1.48, "unit": "µg/mL"},
      {"measurement": "LC50 at 48 h", "setting": "[5]; other: immersion in test solution (waterborne exposure), chlorpyrifos:butachlor ratio 3:2, 48 h, read-out: LC50 (95% CI) of the component in the mixture", "result": 1.29, "unit": "µg/mL"},
      {"measurement": "LC50 at 72 h", "setting": "[5]; other: immersion in test solution (waterborne exposure), chlorpyrifos:butachlor ratio 3:2, 72 h, read-out: LC50 (95% CI) of the component in the mixture", "result": 0.87, "unit": "µg/mL"},
      {"measurement": "LC50 at 96 h", "setting": "[5]; other: immersion in test solution (waterborne exposure), chlorpyrifos:butachlor ratio 3:2, 96 h, read-out: LC50 (95% CI) of the component in the mixture", "result": 0.66, "unit": "µg/mL"}
    ]}
  ]
}
